Key:
[1] = Stability of the crystal form on stirring as suspension in solvent (40° C., 2 days); type: physicochemical
Description: 30 mg of the compound represented by formula (I) was weighed and added into a glass flask, 400 μL acetonitrile-water (1:1) was added to form a suspension. A sample of the suspension was placed on a magnetic stirrer (40° C.) for a dark stirring experiment. The sample of the suspension was centrifuged after stirring at 40° C. for 2 days, and then the residual sample was dried in a vacuum drying oven (30° C.) overnight to give a crystal form A of the compound represented by formula (I). The XRPD pattern of the crystal form A of the compound represented by formula (I) is shown in FIG. 1, the DSC pattern is shown in FIG. 2, and the TGA pattern is shown in FIG. 3.
30 mg of the compound represented by formula (I) was weighed and added into a glass flask, and 400 μL ethyl acetate was added to form a suspension. A sample of the suspension was placed on a magnetic stirrer (40° C.) for dark stirring experiment. The sample of the suspension was centrifuged after stirring at 40° C. for 2 days, and then the residual sample was dried in a vacuum drying oven (30° C.) overnight. The crystal form was detected by XRPD to give a crystal form A of the compound represented by formula (I).
30 mg of the compound represented by formula (I) was weighed and added into a glass flask, and 400 μL methanol was added to form a suspension. A sample of the suspension was placed on a magnetic stirrer (40° C.) for dark stirring experiment. The sample of the suspension was centrifuged after stirring at 40° C. for 2 days, and then the residual sample was dried in a vacuum drying oven (30° C.) overnight to give a crystal form B of the compound represented by formula (I). The XRPD pattern of the crystal form B of the compound represented by formula (I) is shown in FIG. 4, the DSC pattern is shown in FIG. 5, and the TGA pattern is shown in FIG. 6.
50 mg of the compound represented by formula (I) was weighed and added into a 1.5 mL liquid vial, and 200 μL methanol was added thereto, the obtained mixture was homogeneously mixed under ultrasound. The dissolved sample was quickly centrifuged, and the supernatant was placed in a centrifuge tube, the mouth of the tube was packed with a pierced aluminum foil, and then the tube was placed in a fume cupboard for volatilization; the sample of the suspension was placed on a magnetic stirring heater (40° C.) for stirring (in dark), and quickly centrifuged after 2 days. The resultant solid was collected and dried at 30° C. in a vacuum drying oven overnight to give the crystal form C of the compound represented by formula (I). The XRPD pattern of the crystal form C of the compound represented by formula (I) is shown in FIG. 7, the DSC pattern is shown in FIG. 8, and the TGA pattern is shown in FIG. 9.
50 mg of the compound represented by formula (I) was weighed and added into a 1.5 mL liquid vial, and 200 μL ethanol was added thereto, and the obtained mixture was homogeneously mixed under ultrasound. The dissolved sample was quickly centrifuged, the supernatant was placed into a centrifuge tube, and the mouth of the tube was packed with a pierced aluminum foil, and placed in a fume cupboard for volatilization; the sample of the suspension was placed on a magnetic stirring heater (40° C.) for stirring (in dark), and quickly centrifuged after 2 days. The solid obtained as above was collected and dried at 30° C. in a vacuum drying oven overnight to give a crystal form D of the compound represented by formula (I). The XRPD pattern of the crystal form D of the compound represented by formula (I) is shown in FIG. 10, the DSC pattern is shown in FIG. 11, and the TGA pattern is shown in FIG. 12.
35 mg of the compound represented by formula (II) was weighed and added into a 1.5 mL liquid vial, and 400 μL methanol was added thereto, and the obtained mixture was homogeneously mixed under ultrasound. […]

[2] = Solid stability test of the crystal forms (influence factors and acceleration tests; appearance, XRPD, HPLC content and impurities); type: physicochemical; settings: for photostability (stability under light radiation), conclusion in words / stability under acceleration conditions, conclusion in words / stability under high humidity conditions, conclusion in words / thermal stability (high temperature), conclusion in words: conclusion of influence factors and acceleration tests
Text: A sample of the crystal form A was placed on the bottom of a glass sample bottle, and spread to a thin layer. The sample stored under high temperature, high humidity, and acceleration conditions was placed in a bottle of which the mouth was packed with a pierced aluminum foil to ensure the sample to be sufficiently exposed to ambient air; the sample stored under light radiation conditions was placed at room temperature in a standing bottle of which the mouth was open, the sample was exposed to a light resource, and sampled for detection after being radiated by sufficient energy. Samples were taken and analyzed at various time points, and the test results were compared with the initial test results of 0 day, the inspection items included appearance, content and impurities, and the test results are shown in Table 9.
A sample of the crystal form B (10 mg) was placed on the bottom of a glass sample bottle, and spread to a thin layer. The sample stored under high temperature, high humidity, and acceleration conditions were placed in a bottle of which the mouth was packed with a pierced aluminum foil to ensure the sample to be sufficiently exposed to ambient air; the sample stored under light radiation conditions was placed at room temperature in a standing bottle of which the mouth was open, the sample was exposed to a light resource, and sampled for detection after being radiated by sufficient energy, the control sample stored in dark (open, the whole sample bottle was sealed with aluminum foil to keep the content in dark) and the sample stored under light radiation conditions were placed together to exclude environmental influence on the samples. Samples were taken and analyzed at various time points, and the test results were compared with the initial test results of 0 day, the inspection items included appearance, crystal form, content and impurities, the test results are shown in Table 10.
(§1) A sample of the crystal form C was taken and placed on the bottom of a glass sample bottle, and spread to a thin layer. The sample stored under high temperature, high humidity, and acceleration conditions was placed in a bottle of which the mouth was packed with a pierced aluminum foil to ensure the sample to be sufficiently exposed to ambient air; the sample stored under light radiation conditions was placed at room temperature in a standing bottle of which the mouth was open, the sample was exposed to a light resource, and sampled for detection after being radiated by sufficient energy. Samples were taken and analyzed at various time points, and the test results were compared with the initial test results of 0 day.
as §1, with “D” for “C”
A sample of the crystal form E (10 mg) was taken and placed on the bottom of a glass sample bottle, and spread to a thin layer. […]

[3] = Acceleration test (40° C./relative humidity of 75%, open), 5 days
[4] = Acceleration test (40° C./relative humidity of 75%, open), 10 days
[5] = High humidity (room temperature/relative humidity of 92.5%, open), 5 days
[6] = High humidity (room temperature/relative humidity of 92.5%, open), 10 days
[7] = High temperature (60° C., open), 5 days
[8] = High temperature (60° C., open), 10 days
[9] = Light radiation (total illumination: 1.2 × 10^6 Lux·hr), 5 days
[10] = Light radiation (total illumination: 1.2 × 10^6 Lux·hr), 10 days

Row | Appearance ([2]; 0 day (initial)) | Content (%) ([2]; 0 day (initial)) | Total Impurities (%) ([2]; 0 day (initial)) | Appearance [2, 3] | Appearance [2, 4] | Content (%) [2, 4] | Total Impurities (%) [2, 4] | Appearance [2, 5] | Appearance [2, 6] | Content (%) [2, 6] | Total Impurities (%) [2, 6] | Appearance [2, 7] | Appearance [2, 8] | Content (%) [2, 8] | Total Impurities (%) [2, 8] | Appearance [2, 9] | Appearance [2, 10] | Content (%) [2, 10] | Total Impurities (%) [2, 10] | photostability (stability under light radiation), conclusion in words [2] | Compound | other results
1 | Off-white | 99.33% | 0.90% | Off-white | Off-white | 99.38% | 0.96% | Off-white | Off-white | 99.36% | 0.89% | Off-white | Off-white | 99.32% | 0.94% | Off-white | Off-white | 99.41% | 0.86% | good | C=CC(=O)N[C@H]1COC[C@H]1Nc1ncc(/C=C(\F)c2c(Cl)c(OC)cc(OC)c2Cl)cn1 [Crystal Form D] | stability in the ethanol solution ([1]; stirring in ethanol at 40° C. for 2 days): substantially high stability; stability under acceleration conditions, conclusion in words [2]: good; stability under high humidity conditions, conclusion in words [2]: good; thermal stability (high temperature), conclusion in words [2]: good
2 | White | 99.26% | 0.72% | White | White | 99.22% | 0.71% | White | White | 99.24% | 0.73% | White | White | 99.22% | 0.79% | White | White | 99.30% | 0.73% | good | C=CC(=O)N[C@H]1COC[C@H]1Nc1ncc(/C=C(\F)c2c(Cl)c(OC)cc(OC)c2Cl)cn1.CS(=O)(=O)O [Crystal Form F] | stability in the ethanol-water solution ([1]; stirring in ethanol-water (1:1) at 40° C. for 2 days): substantially high stability; Crystal Form (XRPD) ([2]; 0 day (initial)): form F; Crystal Form (XRPD) [2, 4]: form F; Crystal Form (XRPD) [2, 6]: form F; Crystal Form (XRPD) [2, 8]: form F; Crystal Form (XRPD) [2, 10]: form F; stability under acceleration conditions, conclusion in words [2]: good; stability under high humidity conditions, conclusion in words [2]: good; thermal stability (high temperature), conclusion in words [2]: slight impurity generation

— patent US11440903B2, “Salt form and crystal form of compound as FGFR4 inhibitor and preparation method thereof” (GUANGDONG ZHONGSHENG PHARMACEUTICAL CO., LTD, priority 2017, dated 2022)
